Where “and” joins values, the source holds several entries; their conditions need not be identical. Identical values can stand only once.
Tested on: 422866-222-R5-J1-PDC complex spheroids viability
Assay: Anticancer human tumor 422866-222-R5-J1-PDC patient-derived pancreatic adenocarcinoma cell line growth inhibition [RAS]
Conditions: for viability, T/C: stronger effect = lower value
Summary of the method: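 Multi-cell-type spheroids: tumor cells plus HUVEC endothelial cells and mesenchymal stem cells. RAS-pathway inhibitors were combined with targeted agents, each dosed in half-log steps down from clinical Cmax, or from 10 microM when Cmax was unknown.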

[1] = curve of first compound, second compound 0.000949 µM
[2] = curve of first compound, second compound 0.003 µM
[3] = curve of first compound, second compound 0.00949 µM
[4] = curve of first compound, second compound 0.03 µM
[5] = curve of first compound, second compound 0.0949 µM
[6] = curve of first compound, second compound 0.3 µM
[7] = second compound 0.000949 µM, first compound 0.0316 µM
[8] = second compound 0.000949 µM, first compound 0.1 µM
[9] = second compound 0.000949 µM, first compound 0.316 µM
[10] = second compound 0.000949 µM, first compound 1 µM
[11] = second compound 0.003 µM, first compound 0.0316 µM
[12] = second compound 0.003 µM, first compound 0.1 µM
[13] = second compound 0.003 µM, first compound 0.316 µM
[14] = second compound 0.003 µM, first compound 1 µM
[15] = second compound 0.00949 µM, first compound 0.0316 µM
[16] = second compound 0.00949 µM, first compound 0.1 µM
[17] = second compound 0.00949 µM, first compound 0.316 µM
[18] = second compound 0.00949 µM, first compound 1 µM
[19] = second compound 0.03 µM, first compound 0.0316 µM
[20] = second compound 0.03 µM, first compound 0.1 µM
[21] = second compound 0.03 µM, first compound 0.316 µM
[22] = second compound 0.03 µM, first compound 1 µM
[23] = second compound 0.0949 µM, first compound 0.0316 µM
[24] = second compound 0.0949 µM, first compound 0.1 µM
[25] = second compound 0.0949 µM, first compound 0.316 µM
[26] = second compound 0.0949 µM, first compound 1 µM
[27] = second compound 0.3 µM, first compound 0.0316 µM
[28] = second compound 0.3 µM, first compound 0.1 µM
[29] = second compound 0.3 µM, first compound 0.316 µM
[30] = second compound 0.3 µM, first compound 1 µM
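Note: spheroids exposed to compounds for 7 days.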
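Throughout, for viability, T/C: 100% = DMSO vehicle control viability.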

In the case of CC(C)NCC(C(=O)N1CCN(c2ncnc3c2C(C)CC3O)CC1)c1ccc(Cl)cc1 (stereo not drawn) + CCn1c(-c2cccnc2C(C)OC)c2c3cc(ccc31)N1CCOC(CC(NC(=O)C(C(C)C)N(C)C(=O)C3(F)CCN(C(=O)C#CC(C)(C)N(C)C)CC3)C(=O)N3CCCC(N3)C(=O)OCC(C)(C)C2)C1, the IC50 [1] is reported as < 31.6 nM, the IC50 [2] is reported as < 31.6 nM and the IC50 [3] is reported as < 31.6 nM. The IC50 [4] was < 31.6 nM, the IC50 [5] was < 31.6 nM and the IC50 [6] was < 31.6 nM. The viability, T/C [7] was 23%, the viability, T/C [8] was 23.2% and the viability, T/C [9] was 17.5%. For the same molecule, the viability, T/C [10] was 25%, the viability, T/C (second compound 0.000949 µM, first compound 3.16 µM) was 30.9% and the viability, T/C (second compound 0.000949 µM, first compound 10 µM) was 29.7%. For the same molecule, the viability, T/C [11] was 22.5%, the viability, T/C [12] was 17.6% and the viability, T/C [13] was 14.4%. It also gave a viability, T/C [14] of 14.7%, a viability, T/C (second compound 0.003 µM, first compound 3.16 µM) of 14.4% and a viability, T/C (second compound 0.003 µM, first compound 10 µM) of 16.7%. The viability, T/C [15] was 21.1%, the viability, T/C [16] was 18.9% and the viability, T/C [17] was 13.8%. It also gave a viability, T/C [18] of 13.3%, a viability, T/C (second compound 0.00949 µM, first compound 3.16 µM) of 14.8% and a viability, T/C (second compound 0.00949 µM, first compound 10 µM) of 14.6%. The viability, T/C [19] was 17.5%, the viability, T/C [20] was 16% and the viability, T/C [21] was 12.9%. The viability, T/C [22] was 12.1%, the viability, T/C (second compound 0.03 µM, first compound 3.16 µM) was 14.2% and the viability, T/C (second compound 0.03 µM, first compound 10 µM) was 16.2%. For the same molecule, the viability, T/C [23] was 15.2%, the viability, T/C [24] was 12% and the viability, T/C [25] was 11.8%. It also gave a viability, T/C [26] of 13.2%, a viability, T/C (second compound 0.0949 µM, first compound 3.16 µM) of 15.3% and a viability, T/C (second compound 0.0949 µM, first compound 10 µM) of 14.1%. The viability, T/C [27] was 13.8%, the viability, T/C [28] was 13.4% and the viability, T/C [29] was 11.3%. For the same molecule, the viability, T/C [30] was 11.4%, the viability, T/C (second compound 0.3 µM, first compound 3.16 µM) was 14.7% and the viability, T/C (second compound 0.3 µM, first compound 10 µM) was 11.6%.
With CC1(O)CCCC1n1c(=O)c(C(F)F)cc2cnc(NC3CCN(S(C)(=O)=O)CC3)nc21 (stereo not drawn) the viability, T/C (compound 0.0316 µM) was 82.7% [middle of 4 runs], the viability, T/C (compound 0.316 µM) was 85.5% [middle of 4 runs] and the viability, T/C (compound 1 µM) was 91.1% [middle of 4 runs]. The viability, T/C (compound 10 µM) was 58.4% [middle of 4 runs] and the IC50 (curve of compound) was 8910 nM and > 10000 nM and 9300 nM.
In the case of C=CC(=O)N1CCN(c2nc(OCC3CCCN3C)nc3c(F)c(-c4nc(N)cc(C)c4C(F)(F)F)c(Cl)cc23)C(C)C1 (stereo not drawn) + CCn1c(-c2cccnc2C(C)OC)c2c3cc(ccc31)N1CCOC(CC(NC(=O)C(C(C)C)N(C)C(=O)C3(F)CCN(C(=O)C#CC(C)(C)N(C)C)CC3)C(=O)N3CCCC(N3)C(=O)OCC(C)(C)C2)C1, the IC50 [1] is reported as < 3.16 nM, the IC50 [2] is reported as < 3.16 nM and the IC50 [3] is reported as < 3.16 nM. For the same molecule, the IC50 [4] was < 3.16 nM, the IC50 [5] was < 3.16 nM and the IC50 [6] was < 3.16 nM. The viability, T/C (second compound 0.000949 µM, first compound 0.00316 µM) was 24.9%, the viability, T/C (second compound 0.000949 µM, first compound 0.01 µM) was 25.5% and the viability, T/C [7] was 23.4%. The viability, T/C [8] was 23.8%, the viability, T/C [9] was 21.1% and the viability, T/C [10] was 22.7%. It also gave a viability, T/C (second compound 0.003 µM, first compound 0.00316 µM) of 24.1%, a viability, T/C (second compound 0.003 µM, first compound 0.01 µM) of 25.6% and a viability, T/C [11] of 21.5%. The viability, T/C [12] was 22.8%, the viability, T/C [13] was 21.1% and the viability, T/C [14] was 24%. It also gave a viability, T/C (second compound 0.00949 µM, first compound 0.00316 µM) of 22.8%, a viability, T/C (second compound 0.00949 µM, first compound 0.01 µM) of 24.2% and a viability, T/C [15] of 23.3%. For the same molecule, the viability, T/C [16] was 20.6%, the viability, T/C [17] was 21.6% and the viability, T/C [18] was 22.1%. It also gave a viability, T/C (second compound 0.03 µM, first compound 0.00316 µM) of 21.2%, a viability, T/C (second compound 0.03 µM, first compound 0.01 µM) of 23.9% and a viability, T/C [19] of 17.8%. For the same molecule, the viability, T/C [20] was 18.9%, the viability, T/C [21] was 21.1% and the viability, T/C [22] was 22.4%. It also gave a viability, T/C (second compound 0.0949 µM, first compound 0.00316 µM) of 21.4%, a viability, T/C (second compound 0.0949 µM, first compound 0.01 µM) of 19.8% and a viability, T/C [23] of 20.1%. It also gave a viability, T/C [24] of 20.2%, a viability, T/C [25] of 19.7% and a viability, T/C [26] of 21.3%. The viability, T/C (second compound 0.3 µM, first compound 0.00316 µM) was 18%, the viability, T/C (second compound 0.3 µM, first compound 0.01 µM) was 18% and the viability, T/C [27] was 20.5%. It also gave a viability, T/C [28] of 19.6%, a viability, T/C [29] of 16.5% and a viability, T/C [30] of 20%.
With O=C(c1ccc(F)c(F)c1Nc1ccc(I)cc1F)N1CC(O)([C@@H]2CCCCN2)C1 + C=CC(=O)N1CCN(c2nc(OCC3CCCN3C)nc3c(F)c(-c4nc(N)cc(C)c4C(F)(F)F)c(Cl)cc23)C(C)C1 the IC50 (curve of first compound, second compound 0.00316 µM) was < 3.16 nM, the IC50 (curve of first compound, second compound 0.01 µM) was < 3.16 nM and the IC50 (curve of first compound, second compound 0.0316 µM) was < 3.16 nM. The IC50 (curve of first compound, second compound 0.1 µM) was < 3.16 nM, the IC50 (curve of first compound, second compound 0.316 µM) was < 3.16 nM and the IC50 (curve of first compound, second compound 1 µM) was < 3.16 nM. It also gave a viability, T/C (second compound 0.00316 µM, first compound 0.00316 µM) of 27.3%, a viability, T/C (second compound 0.00316 µM, first compound 0.01 µM) of 29% and a viability, T/C (second compound 0.00316 µM, first compound 0.0316 µM) of 20.7%. The viability, T/C (second compound 0.00316 µM, first compound 0.1 µM) was 18.1%, the viability, T/C (second compound 0.00316 µM, first compound 0.316 µM) was 16.6% and the viability, T/C (second compound 0.00316 µM, first compound 1 µM) was 17.1%. The viability, T/C (second compound 0.01 µM, first compound 0.00316 µM) was 39.6%, the viability, T/C (second compound 0.01 µM, first compound 0.01 µM) was 22.1% and the viability, T/C (second compound 0.01 µM, first compound 0.0316 µM) was 21.8%. For the same molecule, the viability, T/C (second compound 0.01 µM, first compound 0.1 µM) was 15.2%, the viability, T/C (second compound 0.01 µM, first compound 0.316 µM) was 17% and the viability, T/C (second compound 0.01 µM, first compound 1 µM) was 12.9%. The viability, T/C (second compound 0.0316 µM, first compound 0.00316 µM) was 28.7%, the viability, T/C (second compound 0.0316 µM, first compound 0.01 µM) was 24.2% and the viability, T/C (second compound 0.0316 µM, first compound 0.0316 µM) was 18.3%. For the same molecule, the viability, T/C (second compound 0.0316 µM, first compound 0.1 µM) was 14.5%, the viability, T/C (second compound 0.0316 µM, first compound 0.316 µM) was 17.8% and the viability, T/C (second compound 0.0316 µM, first compound 1 µM) was 14.6%. The viability, T/C (second compound 0.1 µM, first compound 0.00316 µM) was 22.3%, the viability, T/C (second compound 0.1 µM, first compound 0.01 µM) was 18.9% and the viability, T/C (second compound 0.1 µM, first compound 0.0316 µM) was 17.4%. It also gave a viability, T/C (second compound 0.1 µM, first compound 0.1 µM) of 13.8%, a viability, T/C (second compound 0.1 µM, first compound 0.316 µM) of 14.9% and a viability, T/C (second compound 0.1 µM, first compound 1 µM) of 14.3%. It also gave a viability, T/C (second compound 0.316 µM, first compound 0.00316 µM) of 18%, a viability, T/C (second compound 0.316 µM, first compound 0.01 µM) of 18.2% and a viability, T/C (second compound 0.316 µM, first compound 0.0316 µM) of 20.1%. It also gave a viability, T/C (second compound 0.316 µM, first compound 0.1 µM) of 12.6%, a viability, T/C (second compound 0.316 µM, first compound 0.316 µM) of 16.4% and a viability, T/C (second compound 0.316 µM, first compound 1 µM) of 14.1%. It also gave a viability, T/C (second compound 1 µM, first compound 0.00316 µM) of 19.7%, a viability, T/C (second compound 1 µM, first compound 0.01 µM) of 17.7% and a viability, T/C (second compound 1 µM, first compound 0.0316 µM) of 18.5%. For the same molecule, the viability, T/C (second compound 1 µM, first compound 0.1 µM) was 15%, the viability, T/C (second compound 1 µM, first compound 0.316 µM) was 14.8% and the viability, T/C (second compound 1 µM, first compound 1 µM) was 16.1%.
In the case of CCn1c(-c2cccnc2C(C)OC)c2c3cc(ccc31)N1CCOC(CC(NC(=O)C(C(C)C)N(C)C(=O)C3(F)CCN(C(=O)C#CC(C)(C)N(C)C)CC3)C(=O)N3CCCC(N3)C(=O)OCC(C)(C)C2)C1 (stereo not drawn), the viability, T/C (compound 0.000949 µM) is reported as 25.9% [middle of 8 runs], the viability, T/C (compound 0.003 µM) is reported as 23.3% [middle of 8 runs] and the viability, T/C (compound 0.00949 µM) is reported as 21.9% [middle of 8 runs]. The viability, T/C (compound 0.03 µM) was 22.1% [middle of 8 runs], the viability, T/C (compound 0.0949 µM) was 22.5% [middle of 8 runs] and the viability, T/C (compound 0.3 µM) was 20.2% [middle of 8 runs]. The IC50 (compound alone, run of 05/20/2024) was < 0.949 nM.
